What was measured:
[1] = target: T1, LINE1 reverse transcriptase (Homo sapiens, UniProt O00370); assay: Stable artificial-intron Cis LINE1 reporter assay (HeLa Tet-On 3G, Firefly luciferase); format: cell-based; conditions: HeLa L1 artificial-intron reporter cells, doxycycline 500 ng/mL, 72 h, class symbols
T1 construct: expressed in transfected cells; host or cells: HeLa Tet-On 3G (Takara, cat no 631183)
Summary of the method: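 HeLa Tet-On 3G clone stably carrying a bi-directional doxycycline-inducible artificial-intron LINE1 reporter, plated at 8,000 cells/well onto serially diluted compound. Expression induced with 500 ng/mL doxycycline (final); Firefly luciferase luminescence (Dual-Glo) read 72 h after plating as LINE1 activity.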

[2] = tested on: phosphorylated TANK-binding kinase 1 (pTBK1); assay: UVB-induced pTBK1 in HaCaT cells (ELISA); format: cell-based
Procedure: pTBK1 is an important signaling molecule in regulating inflammatory responses. HaCaT cells were plated in 6-well plates at a density of ˜100 k/well in HaCaT media (DMEM, optimized 1×(Addex Bio)^+1% pen strep (Gibco)^+5% heat inactivated fetal bovine serum (Gibco)). The cells were then cultured at 37° C. overnight. The next day, the cells were treated with the test compounds. Each test compound was diluted and added to media aliquots to provide desired concentrations. To add the test compound+media mixture, an equivalent amount of media from each well was aspirated and then replenished with the media dosed with the test compound. The cells were then cultured for an additional 72 hours with compound treatment prior to UVB exposure.
The media was then aspirated from the wells, with the remaining cells at least 80% confluent in each well. One mL of PBS was then added to each well, and the plate was then placed under a UVB lamp. A UVB sensor was positioned near the plate to register the plate's exposure. The cells were exposed to the UVB light until they reached 0.1 mJ/cm2. […]
A RIPA lysis buffer (#BP-115, Boston BioProducts) was added to a Halt protease and […] inhibitor cocktail (#78440, ThermoFisher), and the mixture was cooled on ice. […] The protein concentration of the cell lysate was measured using Pierce™ Rapid Gold BCA Protein Assay Kit #AF3225 (ThermoFisher). […]

[3] = tested on: THP1-Dual KO-TREX1 xenograft tumors; assay: Altering IFN production in THP1-Dual KO-TREX1 mouse xenografts (Compound 67); format: in vivo; conditions: CB-17 SCID mice, decitabine 5 mg/kg SC, compound 0.3-100 mg/kg PO once daily 5 days, tumors 4 h post-last dose
Procedure: Exemplary Compound 67 was tested for its ability to alter IFN levels in THP1-Dual™ KO-TREX1 xenografts in mice. Assay procedures are described below.
CB-17 SCID female mice were inoculated subcutaneously with 10 million THP1-Dual™ KO-TREX1 cells in 200 μl PBS with Matrigel (1:1) and grouped at N=5 per treatment per sampling timepoint when tumor volume reached an average of 340 mm^3. Six groups were co-administered: (1) decitabine (DAC) at 5 mg/kg SC, once daily, for 5 days, and (2) test compound 67 at one of six doses (0.3 mg/kg PO, 1 mg/kg PO, 3 mg/kg PO, 10 mg/kg PO, 30 mg/kg PO, 100 mg/kg PO) once daily, for 5 days. Two additional groups were administered (1) decitabine and test compound vehicle control SC+PO, once daily, for 5 days, and (2) decitabine at 5 mg/kg SC, once daily, for 5 days. […]
Tumors were harvested 4 h post-last dose administered on day 5, grinded in PBS at 50 Hz for 5 min, kept on ice for 30 min while being vortexed every 5 min. […] Equal amounts of proteins were added to 96-well black plates, and luciferase signal was measured using the QUANTI-Luc™ detection medium according to manufacturer's instructions. Luminescence was measured using the EnVision® 2105 Multimode Plate Reader.
Experimental results are depicted in FIG. 9. […] In FIG. 9, IFN signal was measured in tumors harvested from mice 4 hours after the final decitabine and test compound dosing on day 5.

T1 sequence (O00370 whole entry, looked up): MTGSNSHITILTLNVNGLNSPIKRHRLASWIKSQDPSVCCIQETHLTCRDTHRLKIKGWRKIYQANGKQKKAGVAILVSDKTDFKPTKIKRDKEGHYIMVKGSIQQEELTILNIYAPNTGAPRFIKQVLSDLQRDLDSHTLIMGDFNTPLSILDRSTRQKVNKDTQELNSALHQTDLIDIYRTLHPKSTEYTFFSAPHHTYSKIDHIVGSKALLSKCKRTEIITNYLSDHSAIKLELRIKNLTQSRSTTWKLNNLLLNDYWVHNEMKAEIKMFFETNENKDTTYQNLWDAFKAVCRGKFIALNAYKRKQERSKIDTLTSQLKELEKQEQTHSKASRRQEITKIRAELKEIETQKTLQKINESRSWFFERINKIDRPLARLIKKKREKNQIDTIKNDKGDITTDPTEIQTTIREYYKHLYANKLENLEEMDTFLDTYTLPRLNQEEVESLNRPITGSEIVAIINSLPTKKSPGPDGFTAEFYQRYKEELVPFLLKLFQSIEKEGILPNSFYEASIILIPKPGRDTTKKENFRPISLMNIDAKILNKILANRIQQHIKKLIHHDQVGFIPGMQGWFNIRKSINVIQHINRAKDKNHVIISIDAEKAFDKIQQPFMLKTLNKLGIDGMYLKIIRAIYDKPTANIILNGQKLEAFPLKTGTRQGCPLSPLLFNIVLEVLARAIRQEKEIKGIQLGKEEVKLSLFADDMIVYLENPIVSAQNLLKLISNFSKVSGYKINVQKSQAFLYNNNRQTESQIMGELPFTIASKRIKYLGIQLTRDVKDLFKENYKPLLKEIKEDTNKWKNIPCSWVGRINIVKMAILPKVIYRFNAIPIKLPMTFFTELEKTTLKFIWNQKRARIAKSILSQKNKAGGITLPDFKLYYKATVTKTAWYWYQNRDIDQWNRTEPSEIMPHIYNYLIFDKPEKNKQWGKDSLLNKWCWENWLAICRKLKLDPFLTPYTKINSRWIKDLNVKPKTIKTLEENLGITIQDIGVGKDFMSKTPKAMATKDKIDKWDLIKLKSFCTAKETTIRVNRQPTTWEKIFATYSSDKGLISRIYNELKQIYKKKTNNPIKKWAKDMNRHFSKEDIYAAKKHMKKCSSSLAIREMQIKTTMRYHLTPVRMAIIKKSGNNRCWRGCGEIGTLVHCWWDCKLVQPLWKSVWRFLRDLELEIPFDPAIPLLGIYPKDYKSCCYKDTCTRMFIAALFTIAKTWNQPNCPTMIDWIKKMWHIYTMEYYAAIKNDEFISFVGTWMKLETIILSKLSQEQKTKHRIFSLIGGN

Structure (SMILES) | IC50 [1] | cytotoxicity, concentration [2] | inhibition of DAC-induced IFN signal in THP1 tumors [3]
Nc1nc(=O)n([C@H]2C[C@H](O)[C@](CO)(CCl)O2)cc1F [Compound 14, 4-amino-1-((2R,4S,5R)-5-(chloromethyl)-4-hydroxy-5-(hydroxymethyl)tetrahydrofuran-2-yl)-5-fluoropyrimidin-2(1H)-one] | ≤ 0.05 µM | ≥ 30 µM | –
Nc1nc(=O)n([C@@H]2O[C@@](CO)(CCl)[C@@H](O)[C@@H]2F)cc1F [Compound 67, 4-amino-1-[(2R,3S,4R,5R)-5-(chloromethyl)-3-fluoro-4-hydroxy-5-(hydroxymethyl)oxolan-2-yl]-5-fluoropyrimidin-2-one] | ≤ 0.05 µM | – | dose-response inhibition of DAC-induced IFN signal

Source: patent publication US20230295212A1 (ROME Therapeutics, Inc., priority 2022, published 2023)
